The record followed here is patent publication US20210255193A1, “LYSINE REACTIVE PROBES AND USES THEREOF” (The Scripps Research Institute, priority 2017, published 2021).

Each structure is given as a SMILES string.

Common to all, as to experiment: competitive isoTOP-ABPP
Holding throughout (format): binding

The target in assay [1] is T1, ACBD3 Golgi resident protein GCP60 (Homo sapiens, UniProt Q9H3P7).
T1 construct: isoTOP-ABPP experiments performed in cell lysates (in vitro); endogenous in cells; host or cells: soluble proteome of human cancer cell lines (MDA-MB-231; Ramos and Jurkat also prepared)
T1 sequence (Q9H3P7 1-528): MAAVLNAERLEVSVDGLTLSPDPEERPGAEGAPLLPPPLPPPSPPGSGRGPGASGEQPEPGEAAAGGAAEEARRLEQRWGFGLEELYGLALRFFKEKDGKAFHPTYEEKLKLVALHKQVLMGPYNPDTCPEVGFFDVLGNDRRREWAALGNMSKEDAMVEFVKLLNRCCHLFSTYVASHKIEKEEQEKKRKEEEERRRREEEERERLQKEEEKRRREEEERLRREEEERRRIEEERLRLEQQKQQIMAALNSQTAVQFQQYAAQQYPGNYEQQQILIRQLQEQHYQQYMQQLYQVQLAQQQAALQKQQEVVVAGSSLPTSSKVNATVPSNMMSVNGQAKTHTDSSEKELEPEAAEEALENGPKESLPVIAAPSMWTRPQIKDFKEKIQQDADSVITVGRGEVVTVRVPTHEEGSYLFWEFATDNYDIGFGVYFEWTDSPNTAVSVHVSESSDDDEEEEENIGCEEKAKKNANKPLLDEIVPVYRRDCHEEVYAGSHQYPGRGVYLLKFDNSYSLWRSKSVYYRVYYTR
Also noted: key to isoTOP-ABPP reactivity ratio at lysine Q9H3P7_K117: R = MS1 peak area ratio, DMSO (heavy) / compound-treated (light). The settings on record: 50 uM, 231 sol, in vitro; for R value (DMSO/fragment) for probe 1 labeling: Q9H3P7_K117. The method, then: (§1) In vitro covalent fragment treatment for isoTOP-ABPP. All compounds were made up as solutions in DMSO (100×) and were used at a final concentration of 50 μM for activated esters and 100 μM for guanidinylating agents. For each profiling sample, 0.5 ml of lysate was treated with 5 μl of the 100× compound stock solution or 5 μl of DMSO. Samples were treated with activated esters for
(§2) STP-alkyne labeling and click chemistry. For concentration-dependent reactivity measurements by isoTOP-ABPP, 0.5 ml proteome aliquots were treated at ambient temperature with 1 mM STP-alkyne 1 (5 μl of 100 mM stock in DMSO) and 0.1 mM STP alkyne 1 (5 μl of 10 mM stock in DMSO), respectively. For competitive isoTOP-ABPP, after in vitro fragment treatment (detailed above), the samples were labeled for 1 h at ambient temperature with 0.1 mM STP-alkyne 1 (5 μl of 10 mM stock in DMSO). Samples were conjugated by copper-mediated azide-alkyne cycloaddition (CuAAC) to either the light (1 mM STP-alkyne or fragment treated) or heavy (0.1 mM STP-alkyne or DMSO treated) TEV tags (10 μl of 5 mM stocks in DMSO, final concentration=100 μM) using tris(2-carboxyethyl)phosphine hydrochloride
(§3) R value calculation and processing. The ratios of light and heavy MS1 peaks for each unique peptide were quantified with a CIMAGE software using default parameters (3 MS1 acquisitions per peak and signal to noise threshold set to 2.5). For reactivity measurements by isoTOP-ABPP, the R value was calculated from the ratio of MS1 peak areas, comparing the 1 mM STP alkyne sample (light TEV tag) with the 0.1 mM STP alkyne sample (heavy TEV tag). For competitive isoTOP-ABPP, the R value was calculated from the ratio of MS1 peak areas, comparing the DMSO treated sample (heavy TEV tag) with the compound treated sample (light TEV tag). […] Ratios for unique peptide entries are calculated for each experiment; overlapping peptides with the same modified lysine (for example, different charge states, MudPIT chromatographic steps or tryptic termini) are grouped together and the median ratio is reported as the final ratio (R). The peptide ratios reported by CIMAGE were further filtered to ensure the removal or correction of low-quality ratios in each individual data set. The quality filters applied were the following: removal of half tryptic peptides; for ratios with high standard deviations from the median (90% of the median or above) the lowest ratio was taken instead of the median; removal of peptides with R=20 and only a single MS2 event triggered during the elution of the parent ion; manual annotation of all the peptides with ratios of 20, removing any peptides with low quality elution profiles that remained after the previous curation steps (only done for competitive isoTOP-ABPP).
(§4) Cross-data processing for fragment screening. For compound treated samples, biological replicates of the same condition were averaged, if the standard deviation was below 60% of the mean; otherwise, for lysines with at least one R value <4 for a particular compound, the lowest value of the ratio set was taken. For lysines, where all R values for a particular compound were ≥4, the average was reported. For peptides containing several possible modified lysines, the lysine with the highest number of quantification events was used for analysis and the remaining, redundant peptides were reported as alternative modification sites. Peptides included in the aggregate dataset (those used for further bioinformatics and statistical analyses) were required to have been quantified in 2 experiments for competitive isoTOP-ABPP. Lysines were categorized as liganded, if they had at least one ratio R≥4 (hit fragments). For liganded lysines with R=20 for all liganding events, lysines were required to have been quantified with R=20 in two separate experiments and were further required to have been quantified with R<20 in one additional experiment.

The target in assay [2] is T2, PSME3 Proteasome activator complex subunit 3 (Homo sapiens, UniProt P61289).
T2 construct: isoTOP-ABPP experiments performed in cell lysates (in vitro); endogenous in cells; host or cells: soluble proteome of human cancer cell lines (MDA-MB-231, Ramos, Jurkat)
T2 sequence (P61289 whole entry, one chain of several): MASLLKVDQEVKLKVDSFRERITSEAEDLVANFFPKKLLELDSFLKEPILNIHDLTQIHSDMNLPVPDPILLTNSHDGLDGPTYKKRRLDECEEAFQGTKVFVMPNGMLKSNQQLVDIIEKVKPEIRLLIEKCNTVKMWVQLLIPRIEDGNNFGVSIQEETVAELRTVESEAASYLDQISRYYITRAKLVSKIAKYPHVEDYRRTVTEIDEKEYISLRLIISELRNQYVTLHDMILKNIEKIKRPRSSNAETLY
Also on record: key to isoTOP-ABPP reactivity ratio at lysine P61289_K237: R = MS1 peak area ratio, DMSO (heavy) / compound-treated (light); key to isoTOP-ABPP reactivity ratio at lysine P61289_K12: R = MS1 peak area ratio, DMSO (heavy) / compound-treated (light); capped at 20. Particulars: 50 uM, 231 sol, in vitro. The method, then: as §1, §2, §3, §4

Assay [3] concerns the target T3, NUDT2 Bis(5-nucleosyl)-tetraphosphatase (Homo sapiens, UniProt P50583).
T3 construct: isoTOP-ABPP experiments performed in cell lysates (in vitro); endogenous in cells
Also on record: key to isoTOP-ABPP reactivity ratio at lysine P50583_K89: R = MS1 peak area ratio, DMSO (heavy) / compound-treated (light). The settings on record: 50 uM, 231 sol, in vitro; for R value (DMSO/fragment) for probe 1 labeling: P50583_K89. The method, then:
as §1, §2, §3, §4

In assay [4] the target is T4, POLR2L DNA-directed RNA polymerases I, II, and III subunit (Homo sapiens, UniProt P62875).
T4 construct: isoTOP-ABPP experiments performed in cell lysates (in vitro); endogenous in cells; host or cells: soluble proteome of human cancer cell lines (MDA-MB-231, Ramos, Jurkat)
The settings on record: 50 uM, 231 sol, in vitro; for R value (DMSO/fragment) for probe 1 labeling: P62875_K67. The method, then: as §1, §2, §3, §4

Assay [5] has as its target T5, MAP1LC3B Microtubule-associated proteins 1A/1B light chain (Homo sapiens, UniProt Q9GZQ8).
T5 construct: isoTOP-ABPP experiments performed in cell lysates (in vitro); endogenous in cells; host or cells: soluble proteome of human cancer cell lines (MDA-MB-231; Ramos and Jurkat also prepared)
Also on record: key to isoTOP-ABPP reactivity ratio at lysine Q9GZQ8_K51: R = MS1 peak area ratio, DMSO (heavy) / compound-treated (light). The settings on record: 50 uM, 231 sol, in vitro; for R value (DMSO/fragment) for probe 1 labeling: Q9GZQ8_K51. The method, then: as §1, §2, §3, §4

Assay [6] has as its target T6, SRP54 Signal recognition particle 54 kDa protein (Homo sapiens, UniProt P61011).
T6 construct: isoTOP-ABPP experiments performed in cell lysates (in vitro); endogenous in cells; host or cells: soluble proteome of human cancer cell lines (MDA-MB-231, Ramos, Jurkat)
Also on record: key to isoTOP-ABPP reactivity ratio at lysine P61011_K81: R = MS1 peak area ratio, DMSO (heavy) / compound-treated (light); capped at 20. Particulars: 50 uM, 231 sol, in vitro. The method, then: as §1, §2, §3, §4

T3 sequence (P50583 whole entry): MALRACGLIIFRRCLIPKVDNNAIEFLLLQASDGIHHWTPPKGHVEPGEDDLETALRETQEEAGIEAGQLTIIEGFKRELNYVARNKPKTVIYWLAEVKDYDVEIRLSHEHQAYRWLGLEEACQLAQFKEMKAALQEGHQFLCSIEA
T6 sequence (P61011 whole entry): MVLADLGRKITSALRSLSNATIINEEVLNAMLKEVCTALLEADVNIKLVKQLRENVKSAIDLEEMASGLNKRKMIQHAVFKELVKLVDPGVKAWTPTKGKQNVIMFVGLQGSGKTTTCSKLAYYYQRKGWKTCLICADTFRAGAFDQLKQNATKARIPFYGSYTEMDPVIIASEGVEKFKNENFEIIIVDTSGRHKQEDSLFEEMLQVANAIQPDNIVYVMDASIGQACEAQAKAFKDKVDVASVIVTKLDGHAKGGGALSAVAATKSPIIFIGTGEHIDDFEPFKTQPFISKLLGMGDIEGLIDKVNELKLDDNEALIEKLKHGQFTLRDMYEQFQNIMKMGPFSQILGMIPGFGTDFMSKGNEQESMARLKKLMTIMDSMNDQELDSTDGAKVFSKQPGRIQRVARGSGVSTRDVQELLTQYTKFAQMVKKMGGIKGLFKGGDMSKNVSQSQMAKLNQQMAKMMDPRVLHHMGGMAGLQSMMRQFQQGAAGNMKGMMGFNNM

Consider `O=C(CCc1cn(-c2ccccc2)nc1-c1ccccc1)Oc1c(F)c(F)c(F)c(F)c1F` [fragment 19, Pentafluorophenyl 3-(1,3-diphenyl-1H-pyrazol-4-yl)propanoate], for which the “R value (DMSO/fragment) for probe 1 labeling” value in assay [1] was found to be 1.0; in assay [2] (P61289_K12), 1.0; in assay [2] (P61289_K237), 0.2; in assay [3], 1.0; in assay [4], 1.0; in assay [5], 1.0.
`COc1cc(CCC(=O)Oc2c(F)c(F)c(F)c(F)c2F)cc(OC)c1OC` [fragment 23, Pentafluorophenyl 3-(3,4,5-trimethoxyphenyl)propanoate]: the “R value (DMSO/fragment) for probe 1 labeling” value was determined as 1.2 in assay [1]; 0.5 in assay [2] (P61289_K237); 1.0 in assay [3]; 1.1 in assay [4]; 0.7 in assay [5].
Take `O=C(Oc1c(F)c(F)c(F)c(F)c1F)C1CCN(C(=O)OCc2ccccc2)CC1` [fragment 24, 1-Benzyl 4-(pentafluorophenyl) piperidine-1,4-dicarboxylate]: the “isoTOP-ABPP reactivity ratio at lysine Q9H3P7_K117” value in assay [1] turned out to be 1.0. Besides, the “isoTOP-ABPP reactivity ratio at lysine P61289_K237” value in assay [2] amounted to 0.2. In assay [3], the “isoTOP-ABPP reactivity ratio at lysine P50583_K89” value amounted to 0.9. In addition, in assay [4], the “isoTOP-ABPP reactivity ratio at lysine P62875_K67” value is reported as 0.9. The “isoTOP-ABPP reactivity ratio at lysine Q9GZQ8_K51” value in assay [5] is recorded as 1.1.
Regarding `O=C(CN1C(=O)c2ccccc2C1=O)Oc1c(F)c(F)c(F)c(F)c1F` [fragment 27, Pentafluorophenyl 2-(1,3-dioxoisoindolin-2-yl)acetate], the “isoTOP-ABPP reactivity ratio at lysine Q9H3P7_K117” value in assay [1] is given as 1.9. Further, the “isoTOP-ABPP reactivity ratio at lysine P61289_K237” value in assay [2] worked out at 0.8. Further, the “isoTOP-ABPP reactivity ratio at lysine P50583_K89” value in assay [3] is recorded as 0.7. Also, the “isoTOP-ABPP reactivity ratio at lysine P62875_K67” value in assay [4] was determined as 1.0. The “isoTOP-ABPP reactivity ratio at lysine Q9GZQ8_K51” value in assay [5] was determined as 1.0.
As for `O=C(CCc1cn(-c2ccccc2)nc1-c1ccccc1)Oc1ccc([N+](=O)[O-])cc1[N+](=O)[O-]` [fragment 29, 2,4-Dinitrophenyl 3-(1,3-diphenyl-1H-pyrazol-4-yl)propanoate], the “isoTOP-ABPP reactivity ratio at lysine Q9H3P7_K117” value in assay [1] stood at 1.0. Further, in assay [2], the “isoTOP-ABPP reactivity ratio at lysine P61289_K12” value was found to be 1.1 and the “isoTOP-ABPP reactivity ratio at lysine P61289_K237” value came to 0.4. The “isoTOP-ABPP reactivity ratio at lysine P50583_K89” value in assay [3] is 1.0. The “isoTOP-ABPP reactivity ratio at lysine Q9GZQ8_K51” value in assay [5] was 0.8. In addition, the “isoTOP-ABPP reactivity ratio at lysine P61011_K81” value in assay [6] turned out to be 1.1.
